Data reported in patent publication US20260263459A1, “PHTHALAZINONE GSPT1 PROTEIN DEGRADING AGENT AND USE THEREOF” (CHINA PHARMACEUTICAL UNIVERSITY, priority 2023, published 2026).

Key:
GSPT1 protein = target: T1, GSPT1 protein (Homo sapiens, UniProt P15170+Q96SW2); assay: Degradation of GSPT1 in KG-1 cells (Western blot); assay type: cell-based; conditions: compound concentration 200 nM, 4 h incubation
T1 construct: Whole cell lysates were prepared; endogenous in cells; host or cells: KG-1 cells
T1 sequence (P15170 whole entry): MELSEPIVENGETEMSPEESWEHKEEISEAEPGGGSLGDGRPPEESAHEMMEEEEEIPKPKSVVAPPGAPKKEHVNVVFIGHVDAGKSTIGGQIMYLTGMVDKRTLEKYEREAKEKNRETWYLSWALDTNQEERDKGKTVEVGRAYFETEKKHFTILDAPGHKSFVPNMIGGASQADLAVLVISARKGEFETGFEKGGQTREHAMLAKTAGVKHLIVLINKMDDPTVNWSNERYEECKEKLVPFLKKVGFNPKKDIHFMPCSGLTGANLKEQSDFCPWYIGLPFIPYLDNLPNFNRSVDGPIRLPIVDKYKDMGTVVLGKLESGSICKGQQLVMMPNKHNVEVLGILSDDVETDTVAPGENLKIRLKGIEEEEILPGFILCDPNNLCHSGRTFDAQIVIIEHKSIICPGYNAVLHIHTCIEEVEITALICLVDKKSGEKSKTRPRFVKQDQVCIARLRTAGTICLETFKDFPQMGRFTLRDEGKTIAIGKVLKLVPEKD
T1 sequence (Q96SW2 whole entry): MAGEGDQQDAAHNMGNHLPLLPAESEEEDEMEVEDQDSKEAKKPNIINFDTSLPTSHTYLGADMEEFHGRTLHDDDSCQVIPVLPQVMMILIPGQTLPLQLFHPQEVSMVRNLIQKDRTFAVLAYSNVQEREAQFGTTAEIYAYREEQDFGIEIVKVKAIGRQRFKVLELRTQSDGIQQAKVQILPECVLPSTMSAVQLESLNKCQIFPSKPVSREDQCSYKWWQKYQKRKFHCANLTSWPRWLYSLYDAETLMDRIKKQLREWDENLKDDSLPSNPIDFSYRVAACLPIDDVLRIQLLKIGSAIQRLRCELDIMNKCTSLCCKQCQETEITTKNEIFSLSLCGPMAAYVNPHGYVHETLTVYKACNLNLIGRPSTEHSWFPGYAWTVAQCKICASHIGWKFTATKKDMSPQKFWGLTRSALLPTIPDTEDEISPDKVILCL
T1 sequence (Q16531 whole entry partner): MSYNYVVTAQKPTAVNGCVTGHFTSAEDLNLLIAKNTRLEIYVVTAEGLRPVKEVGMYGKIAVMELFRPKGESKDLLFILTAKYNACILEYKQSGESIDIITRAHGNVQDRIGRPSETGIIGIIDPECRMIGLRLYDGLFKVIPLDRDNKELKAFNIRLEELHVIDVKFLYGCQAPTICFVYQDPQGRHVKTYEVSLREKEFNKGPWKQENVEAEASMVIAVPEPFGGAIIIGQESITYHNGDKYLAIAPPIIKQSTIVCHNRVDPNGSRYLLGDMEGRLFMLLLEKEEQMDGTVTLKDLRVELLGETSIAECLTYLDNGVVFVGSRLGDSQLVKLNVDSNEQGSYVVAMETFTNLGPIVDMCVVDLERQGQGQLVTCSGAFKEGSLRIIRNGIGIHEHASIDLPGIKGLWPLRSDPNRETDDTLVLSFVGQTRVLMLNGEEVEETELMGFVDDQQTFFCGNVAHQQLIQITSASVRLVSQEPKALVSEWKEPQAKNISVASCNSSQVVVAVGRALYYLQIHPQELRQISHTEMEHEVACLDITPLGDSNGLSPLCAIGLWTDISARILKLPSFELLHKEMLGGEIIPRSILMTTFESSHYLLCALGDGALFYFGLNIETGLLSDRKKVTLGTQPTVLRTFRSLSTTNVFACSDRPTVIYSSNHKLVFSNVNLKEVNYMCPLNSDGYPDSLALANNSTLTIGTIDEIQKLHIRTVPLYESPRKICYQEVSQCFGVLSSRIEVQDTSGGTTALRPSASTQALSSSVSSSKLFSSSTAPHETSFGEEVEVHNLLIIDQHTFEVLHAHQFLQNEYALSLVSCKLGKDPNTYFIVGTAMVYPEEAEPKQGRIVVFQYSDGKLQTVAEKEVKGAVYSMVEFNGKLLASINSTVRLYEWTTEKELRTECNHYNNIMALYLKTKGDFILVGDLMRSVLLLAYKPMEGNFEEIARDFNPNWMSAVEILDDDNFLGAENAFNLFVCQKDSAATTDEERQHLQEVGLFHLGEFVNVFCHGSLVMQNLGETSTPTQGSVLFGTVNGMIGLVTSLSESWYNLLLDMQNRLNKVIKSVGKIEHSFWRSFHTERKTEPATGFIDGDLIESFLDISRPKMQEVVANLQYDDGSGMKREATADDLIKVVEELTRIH
Protocol: KG-1 cells were grown in an IMDM culture medium (containing 20% FBS). After centrifugation and counting, the cell concentration was adjusted. The cells were plated onto 6-well plates at 10^6 cells/well, with 1350 μL per well. 150 μL of DMSO and the test compounds of the present disclosure (compound concentration: 200 nM) were added. The plates were incubated in an incubator at 37° C. with 5% CO2 for 4 h. The cells were centrifuged, and the culture medium was discarded. PBS was added to wash the cells and then discarded. Whole cell lysates were prepared using a protease inhibitor cocktail (100×, Fude Biological), a protein phosphatase inhibitor cocktail (100×, Fude Biological), Super Nuclease (Beyotime), and a high-intensity RIPA lysis buffer (Thermo Fisher) and placed on ice for 30 min. After centrifugation, the cell debris precipitates were discarded, and the whole cell lysate supernatants were collected and transferred to new centrifuge tubes. After a BCA protein assay, samples were prepared using a 5× loading buffer (Thermo Fisher). The samples were subjected to protein electrophoresis separation in a 4-20% precast gel (SDS-PAGE gel), transferred to a PVDF membrane, blocked with 5% NFDM/TBST at room temperature for 1 h, incubated overnight with primary antibodies at 4° C., and incubated with a secondary antibody at room temperature for 2 h the next day. Signals were detected using a MINICHEMITM imaging system.
• Anti-GSPT1: Abcam ab234433 • Anti-beta actin: Fude Biological FD0060
• Anti-rabbit peroxidase-linked secondary antibody: Fude Biological FDG007
The degradation effects of the compounds on GSPT1 protein are shown in Table 1, where A represents a GSPT1 protein degradation percentage of no less than 70%, B represents a degradation percentage of less than 70% but no less than 30%, and C represents a degradation percentage of less than 30%.

KG-1 cells = assay: Antiproliferative activity against KG-1 cells (CCK8); assay type: cell-based; conditions: Homo sapiens, 72 h incubation, CCK8 method
Protocol: KG-1 cells in the logarithmic growth phase were diluted in a culture medium (RPMI+10% FBS) and plated onto 96-well plates at 5000 cells/well, and the plates were incubated in an incubator at 37° C. with 5% CO2 for 24 h. 10 mM stock solutions of the test compounds of the present disclosure in DMSO were prepared and diluted with the culture medium to set 9 concentration gradients. 3 replicate wells were set for each concentration. After compound addition, the plates were incubated in an incubator at 37° C. with 5% CO2 for 72 h. The cell proliferation was assessed using the CCK8 method. The cell growth inhibition IC50 values of the compounds were determined using an enzyme labeling method. The IC50 values were calculated using GraphPad Prism 7 software.
The antiproliferative activity of the compounds against KG-1 cells is shown in Table 2, where A represents IC50≤30 nM, B represents 30<IC50≤300 nM, and C represents IC50>300 nM.

| Structure (SMILES) | inhibition at 0.2 µM (GSPT1 protein) | IC50 (KG-1 cells) |
| --- | --- | --- |
| O=C1CCC(n2ncc3cc(CNC(=O)C4CNc5ccccc5C4)ccc3c2=O)C(=O)N1 (centres unmarked) [Compound T-24, N-((2-(2,6-Dioxopiperidin-3-yl)-1-oxo-1,2-dihydrophthalazin-6-yl)methyl)-1,2,3,4-tetrahydroquinoline-3-carboxamide] | ≥ 70% | 30 to 300 nM |
| O=C1CCC(n2ncc3cc(CNC(=O)C4=Cc5ccccc5OC4)ccc3c2=O)C(=O)N1 (centres unmarked) [Compound T-1, N-((2-(2,6-Dioxopiperidin-3-yl)-1-oxo-1,2-dihydrophthalazin-6-yl)methyl)-2H-chromene-3-carboxamide] | 30 to 70% | 30 to 300 nM |
| O=C1CCC(n2ncc3cc(CNC(=O)C4=Cc5cc(OC(F)(F)F)ccc5OC4)ccc3c2=O)C(=O)N1 (centres unmarked) [Compound T-10, N-((2-(2,6-Dioxopiperidin-3-yl)-1-oxo-1,2-dihydrophthalazin-6-yl)methyl)-6-(trifluoromethoxy)-2H-chromene-3-carboxamide] | ≥ 70% | ≤ 30 nM |
| O=C1CCC(n2ncc3cc(CNC(=O)C4=Cc5cc(Cl)ccc5OC4)ccc3c2=O)C(=O)N1 (centres unmarked) [Compound T-13, 6-Chloro-N-((2-(2,6-dioxopiperidin-3-yl)-1-oxo-1,2-dihydrophthalazin-6-yl)methyl)-2H-chromene-3-carboxamide] | 30 to 70% | 30 to 300 nM |
| O=C1CCC(n2ncc3cc(CNC(=O)C4COc5ccc(OC(F)(F)F)cc5C4)ccc3c2=O)C(=O)N1 (centres unmarked) [Compound T-23, N-((2-(2,6-Dioxopiperidin-3-yl)-1-oxo-1,2-dihydrophthalazin-6-yl)methyl)-6-(trifluoromethoxy) chromane-3-carboxamide] | ≥ 70% | ≤ 30 nM |
| O=C1CCC(n2ncc3cc(NC(=O)C4=Cc5cc(F)ccc5OC4)ccc3c2=O)C(=O)N1 (centres unmarked) [Compound T-26, N-(2-(2,6-Dioxopiperidin-3-yl)-1-oxo-1,2-dihydrophthalazin-6-yl)-6-fluoro-2H-chromene-3-carboxamide] | < 30% | 30 to 300 nM |
| Cc1ccc2c(c1)C=C(C(=O)NCc1ccc3c(=O)n(C4CCC(=O)NC4=O)ncc3c1)CO2 (centres unmarked) [Compound T-12, N-((2-(2,6-Dioxopiperidin-3-yl)-1-oxo-1,2-dihydrophthalazin-6-yl)methyl)-6-methyl-2H-chromene-3-carboxamide] | 30 to 70% | 30 to 300 nM |
| O=C1CCC(n2ncc3cc(CNC(=O)C4=Cc5cc(Br)ccc5OC4)ccc3c2=O)C(=O)N1 (centres unmarked) [Compound T-14, 6-Bromo-N-((2-(2,6-dioxopiperidin-3-yl)-1-oxo-1,2-dihydrophthalazin-6-yl)methyl)-2H-chromene-3-carboxamide] | 30 to 70% | 30 to 300 nM |
| O=C1CCC(n2ncc3cc(NC(=O)C4=Cc5cc(OC(F)(F)F)ccc5OC4)ccc3c2=O)C(=O)N1 (centres unmarked) [Compound T-27, N-(2-(2,6-Dioxopiperidin-3-yl)-1-oxo-1,2-dihydrophthalazin-6-yl)-6-(trifluoromethoxy)-2H-chromene-3-carboxamide] | < 30% | 30 to 300 nM |
| C=Cc1ccc2c(c1)C=C(C(=O)NCc1ccc3c(=O)n(C4CCC(=O)NC4=O)ncc3c1)CO2 (centres unmarked) [Compound T-16, N-((2-(2,6-Dioxopiperidin-3-yl)-1-oxo-1,2-dihydrophthalazin-6-yl)methyl)-6-vinyl-2H-chromene-3-carboxamide] | < 30% | > 300 nM |
| O=C1CCC(n2ncc3cc(NC(=O)C4=Cc5cccc(OC(F)(F)F)c5OC4)ccc3c2=O)C(=O)N1 (centres unmarked) [Compound T-28, N-(2-(2,6-Dioxopiperidin-3-yl)-1-oxo-1,2-dihydrophthalazin-6-yl)-8-(trifluoromethoxy)-2H-chromene-3-carboxamide] | 30 to 70% | 30 to 300 nM |
| CC(C)(C)c1ccc2c(c1)C=C(C(=O)NCc1ccc3c(=O)n(C4CCC(=O)NC4=O)ncc3c1)CO2 (centres unmarked) [Compound T-17, 6-(tert-Butyl)-N-((2-(2,6-dioxopiperidin-3-yl)-1-oxo-1,2-dihydrophthalazin-6-yl)methyl)-2H-chromene-3-carboxamide] | ≥ 70% | ≤ 30 nM |
| O=C1CCC(n2ncc3cc(CNC(=O)C4=Cc5cccc(F)c5OC4)ccc3c2=O)C(=O)N1 (centres unmarked) [Compound T-5, N-((2-(2,6-Dioxopiperidin-3-yl)-1-oxo-1,2-dihydrophthalazin-6-yl)methyl)-8-fluoro-2H-chromene-3-carboxamide] | 30 to 70% | ≤ 30 nM |
| O=C1CCC(n2ncc3cc(CNC(=O)C4=Cc5cc(-c6ccccc6)ccc5OC4)ccc3c2=O)C(=O)N1 (centres unmarked) [Compound T-18, N-((2-(2,6-Dioxopiperidin-3-yl)-1-oxo-1,2-dihydrophthalazin-6-yl)methyl)-6-phenyl-2H-chromene-3-carboxamide] | ≥ 70% | ≤ 30 nM |
| O=C1CCC(n2ncc3cc(CNC(=O)C4COc5ccc(F)cc5C4)ccc3c2=O)C(=O)N1 (centres unmarked) [Compound T-22, N-((2-(2,6-Dioxopiperidin-3-yl)-1-oxo-1,2-dihydrophthalazin-6-yl)methyl)-6-fluorochromane-3-carboxamide] | 30 to 70% | ≤ 30 nM |
| O=C1CCC(n2ncc3cc(CNC(=O)C4=Cc5ccc(F)cc5OC4)ccc3c2=O)C(=O)N1 (centres unmarked) [Compound T-4, N-((2-(2,6-Dioxopiperidin-3-yl)-1-oxo-1,2-dihydrophthalazin-6-yl)methyl)-7-fluoro-2H-chromene-3-carboxamide] | 30 to 70% | 30 to 300 nM |
